Data from patent US20050136040A1, “Control of gene expression using a complex of an oligonucleotide and a regulatory peptide” (Imperial College Innovations Limited, priority 2001, published 2005).
[5FU] = 5-fluoro-deoxyuracil base

Key:
androgen receptor gene [1] = experiment: RT-PCR of androgen receptor mRNA, LNCap cells treated with ARP-L218 and cyproterone acetate; assay type: cell-based, human; details: 3 days
Method: (§1) RT-PCR analysis of androgen receptor mRNA. After ethidium bromide staining the quantity of electrophoresed amplicons was determined in arbitrary units using a Labworks image reader.
ARP-L218 was prepared in phosphate buffer saline (PBS), 0.2 μm syringed filtered and used on day of test set-up.
(§2) LNCap cells were transfected with ARP-L218 using lipofectamine2000 (cationic activated dendrimer, InVitrogen life technologies) with/without antagonist. Various amounts of ARP-L218 were mixed with a fixed amount of lipofectamine2000 (3 μl) in a total volume of 100 μl serum free medium without antibiotics (OptiMEM). After 20 mins incubation at room temperature, the transfection mixture was added to cells at 70% confluency and cells were incubated for 3 days.
(§3) RNA was extracted and RT-PCR analysis of AR mRNA levels conducted as described above.

androgen receptor gene [2] = experiment: RT-PCR of androgen receptor mRNA, LNCap cells treated with ARP-L218 and R1881; assay type: cell-based, human; details: 3 days; for AR mRNA Percentage of control: vs PBS treated control
Method: as §1
The effect of ARP-L218 on androgen receptor gene expression with and without a synthetic androgen (R1881) was measured using the protocol outlined in the above section.
ARP-L218 was prepared in phosphate buffer saline (PBS), 0.2 μm syringed filtered and used on day of test set-up. R1881 (synthetic androgen) was purchased from Perkin Elmer, Catalogue number NLP005005MG.
as §2, with “agonist.” for “antagonist.”
as §3

PSA = experiment: Secreted PSA by immunoassay in LnCap cells with or without R1881 (Example 2); assay type: cell-based, human; details: LnCap control cells (no or irrelevant oligonucleotide-peptide fusion), 72 hours
Method: In an example, the prostate cancer cell line LnCap is treated with the oligonucleotide-peptide fusion comprising a MAD1 or Sap18 peptide as described in Example 1. Transfected cells are optionally identified and/or isolated (for example using a GFP marker and FACS techniques) and are assayed for androgen receptor gene expression as well as for the classic prostate cancer marker PSA. For example, GFP-positive, FACS sorted cells were cultured in the presence or absence of the AR agonist R1881. After 72 hours, culture media were collected and the amount of the androgen-regulated protein PSA determined by immunoassay. Addition of R1881 results in an approximately 25-fold increase in levels of secreted PSA in control cells (with no oligonucleotide-peptide fusion, or an irrelevant oligonucleotide-peptide fusion).

[3] = test system: Prostate specific antigens (PSA) protein levels; experiment: Total PSA in LNCap cell supernatants, chemiluminescent immunometric assay; assay type: cell-based, human; details: LNCap supernatant, 3 days
Method: Cells were incubated in the presence of R1881 for 3 days. PSA levels in the supernatants were measure by ELISA. Each column represent total prostate specific antigen (PSA).
Therefore, using the protocols described in Example 8 ARP-L218 was transfected into LNCap cells (GET/LNC/W39/P6) with Lipofectamine 2000 (InVitrogen) with or without R1881 (Perkin Elmer), a synthetic androgen, for 3 days, after which the supernatant were harvested for quantitation of total PSA protein at the Pathology Centre, Hammersrnith Hospital, London, U.K.
PSA measurements were carried out by a chemiluminescent labelled immunometric assay using an automated immunoassay analyser (Abbott Architect Immunoassay Analyser).

[4] = test system: interferon stimulated response element (IRE) of the human 6-16 gene; experiment: Interferon-induced EGFP expression by FACS in modified HT1080 cells (C8); assay type: cell-based; details: for Interferon-induced GFP expression: +INF 300 units/ml for one day
Method: Cells habouring EGFP under the control of the interferon stimulated response element (ISRE) of the human 6-16 gene were transiently transfected with different compounds. Cells were then treated with 300 units/ml of IFN for one day and analysed by FACS for the GFP expression. • a) Parental cell line, no treatment • b) Cells expressing the stably transfected construct (C8), no treatment • c) C8 treated with interferon (+INF) • d) C8 transfected with 500 pm TFO, +INF • e) C8 specific TFO 1000 pM, +INF • f) C8, GeneICE1 500 pM, +INF • g) C8, GeneICE 2 500 pM, +INF • h) C8, unspecific control TFO 500 pM, +INF • i) C8, unspecific control TFO 1000 pM, +INF
These cells have a stably incorporated gene expressing EGFP under the control of the interferon stimulated response element (IRE) of the human 6-16 gene.
For the following data, cells were transiently transfected with different compounds using standard lipofectamine protocols. Cells were then treated with 300 units/ml of interferon (INF) for one day and analysed by FACS for the GFP expression.

## CC(=O)O[C@]1(C(C)=O)CC[C@H]2[C@@H]3C=C(Cl)C4=CC(=O)[C@@H]5C[C@@H]5[C@]4(C)[C@H]3CC[C@@]21C [Cyproterone Acetate, Cyproterone acetate]
Androgen receptor gene [1]
  androgen receptor gene expression levels (in words): can act to reduce AR gene expression
Androgen receptor gene [1]; Cyproterone Acetate 0.1 nM
  AR band quantitation: 2357
  AR mRNA % of control: 54.0%
Androgen receptor gene [1]; Cyproterone Acetate 10 nM
  AR band quantitation: 2401
  AR mRNA % of control: 51.5%
Androgen receptor gene [1]; Cyproterone Acetate 1 uM
  AR band quantitation: 1868
  AR mRNA % of control: 47.8%
Androgen receptor gene [1]; Cyproterone Acetate 10 uM
  AR band quantitation: 1568

## C[C@]1(O)CC[C@H]2[C@@H]3CCC4=CC(=O)CCC4=C3C=C[C@@]21C [R1881]
Androgen receptor gene [2]
  androgen receptor gene expression levels (in words): can act to reduce AR gene expression
Androgen receptor gene [2]; R1881 0.01 nM
  AR Ratio/beta-actin: 0.237
  AR band quantitation: 2083
  AR band quantitation Average: 2083
  AR mRNA Percentage of control: 71.73%
Androgen receptor gene [2]; R1881 1 nM
  AR Ratio/beta-actin: 0.103
  AR band quantitation: 1471
  AR band quantitation Average: 1471
  AR mRNA Percentage of control: 31.29%
Androgen receptor gene [2]; R1881 100 nM
  AR Ratio/beta-actin: 0.116
  AR band quantitation: 1455
  AR band quantitation Average: 1455
  AR mRNA Percentage of control: 35.17%
Androgen receptor gene [2]; R1881 1 uM
  AR Ratio/beta-actin: 0.165
  AR band quantitation: 1388
  AR band quantitation Average: 1388
  AR mRNA Percentage of control: 49.92%
PSA
  increase in levels of secreted PSA on addition of R1881: approximately 25 fold
[3]
  effect on PSA levels (in words): show an increase in PSA levels
[3]; R1881 0.01 nM
  Total PSA: 372 ng/mL
[3]; R1881 100 nM
  Total PSA: 1980 ng/mL

## specific TFO: IRE TFO (5′) GGGUGGTGGGGTTGTGTT (3′), U = 5-fluro-deoxyuracil, without peptide (DNA, [5FU] at 4, backbone not given here)
[4]; 500 pM
  Interferon-induced GFP expression: 53%
[4]; 1000 pM
  Interferon-induced GFP expression: 63%
[4]; +INF, average over the conditions of Table 4
  average repression of INF induced GFP expression: 42%
